Laboratory results from patent US8227508B2, “Dietary and pharmaceutical compositions containing carnosol and/or rosmanol and their uses” (DSM IP Assets B.V., priority 2006, dated 2012).

What was measured:
mouse [1] = experiment: Four Plates Test; type: in vivo; conditions: −5 h and −1 h
Text: The method, which detects anxiolytic activity, follows that described by Aron et al (1971, Neuropharmacology, 10:459-469). Anxiolytics (benzodiazepines) increase the number of punished crossings. Animals were placed individually in a white plastic enclosure containing a floor consisting of 4 metal plates connected to an electric shock generator (Apelex: type 011346). Each mouse was left to explore freely for 15 seconds. Then, every time it crossed from one plate to another, it received a weak electric shock (2.5 mA, 1.5 s). The number of punished crossings was counted during a 1 minute test. 15 mice were studied per group. The test was performed blind.
Carnosol was evaluated at 3 doses (200, 400, 600 mg/kg), administered p.o. 24 h, 5 h and 1 h before the test, and compared with a vehicle control (corn oil) group.
Clobazam (32 mg/kg p.o.), administered 1 h before the test, was used as reference substance. Mice in this group received additional administrations of vehicle at 24 h and 5 h before the test in order to maintain experimental blinding.

mouse [2] = experiment: Marble burying test; type: in vivo; conditions: −30 min
Protocol: The method applied here follows that described by Broekkamp et al. (1986). Mice (n=15 per treatment group) were individually placed in transparent plastic cages (33×21×18 cm) with 5 cm of sawdust on the floor and 25 marbles (diameter 1 cm) grouped in the centre of the cage. A second, up-turned, cage served as a lid. The number of marbles covered by sawdust (by at least two-thirds) was counted at the end of the 30-min test period. Tests were performed by investigators blind to the drug treatment protocol.
Prior to testing, all test cages and marbles were “impregnated” by leaving 10 naive mice in each cage for 15 minutes.
Carnosol (3, 10 and 30 mg/kg) and rosmanol (10, 30 and 100 mg/kg) were administered i.p. 30 min before the test, and compared with a vehicle control group. Fluoxetine (32 mg/kg), administered under the same experimental conditions, was used as a reference substance.

[3] = target: T1, human serotonin re-uptake transporter (hSERT) (Homo sapiens, UniProt P31645); experiment: Serotonin uptake inhibition in HEK-293 cells expressing hSERT; type: cell-based; conditions: transfected HEK-293 cells, [3H]-serotonin 20 nM, mean ± s.e.m. (n = 2)
T1 construct: host or cells: HEK-293
T1 sequence (P31645 whole entry): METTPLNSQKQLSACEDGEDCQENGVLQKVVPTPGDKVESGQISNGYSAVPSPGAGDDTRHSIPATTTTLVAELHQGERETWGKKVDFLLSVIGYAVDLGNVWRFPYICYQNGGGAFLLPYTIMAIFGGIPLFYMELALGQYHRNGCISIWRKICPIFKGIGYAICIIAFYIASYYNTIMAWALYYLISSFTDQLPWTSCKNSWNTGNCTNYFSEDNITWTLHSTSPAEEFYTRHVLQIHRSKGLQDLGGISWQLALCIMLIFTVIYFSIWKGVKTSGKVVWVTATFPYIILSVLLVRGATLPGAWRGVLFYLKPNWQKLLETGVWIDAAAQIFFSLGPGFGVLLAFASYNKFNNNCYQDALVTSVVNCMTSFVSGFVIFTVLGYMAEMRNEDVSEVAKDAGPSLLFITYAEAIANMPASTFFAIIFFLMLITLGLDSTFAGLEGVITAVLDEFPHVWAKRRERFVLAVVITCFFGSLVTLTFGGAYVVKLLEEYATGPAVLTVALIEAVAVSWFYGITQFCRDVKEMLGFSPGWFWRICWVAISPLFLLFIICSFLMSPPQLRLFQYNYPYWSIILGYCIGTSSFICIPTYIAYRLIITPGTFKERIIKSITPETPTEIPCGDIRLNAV
Protocol: The cells were routinely grown in Dulbecco's Modified Eagle's Medium (Bioconcept) containing 10% dialysed foetal calf serum (Invitrogen), penicillin, streptomycin, L-glutamine and the antibiotic G418 and passaged by-trypsinisation. On the day of assay, cells from 80% confluent flasks were harvested by gentle washing with warm phosphate buffered saline (PBS). […] Serotonin uptake into the cells was determined by addition of radio-labelled [^3H]-serotonin (GE Healthcare) at a concentration of 20 nM, and incubation for 40 minutes at 37° C. with gentle shaking. At the end of this time unincorporated label was removed by filtration though Unifilter 96 GF/B plates (Perkin Elmer) using a Tomtec Mach III M cell harvester. The incorporated serotonin retained on the plates was quantified by liquid scintillation counting using Microscint-40/Topcount (Perkin Elmer).

[4] = target: human recombinant acetylcholinesterase (Homo sapiens, UniProt P22303); experiment: Acetylcholinesterase inhibition (Ellman method); type: biochemical; conditions: substrate AMTCh 50 μM, read-out: percentage inhibition of acetylcholinesterase activity
Sequence of human recombinant acetylcholinesterase (P22303 32-614): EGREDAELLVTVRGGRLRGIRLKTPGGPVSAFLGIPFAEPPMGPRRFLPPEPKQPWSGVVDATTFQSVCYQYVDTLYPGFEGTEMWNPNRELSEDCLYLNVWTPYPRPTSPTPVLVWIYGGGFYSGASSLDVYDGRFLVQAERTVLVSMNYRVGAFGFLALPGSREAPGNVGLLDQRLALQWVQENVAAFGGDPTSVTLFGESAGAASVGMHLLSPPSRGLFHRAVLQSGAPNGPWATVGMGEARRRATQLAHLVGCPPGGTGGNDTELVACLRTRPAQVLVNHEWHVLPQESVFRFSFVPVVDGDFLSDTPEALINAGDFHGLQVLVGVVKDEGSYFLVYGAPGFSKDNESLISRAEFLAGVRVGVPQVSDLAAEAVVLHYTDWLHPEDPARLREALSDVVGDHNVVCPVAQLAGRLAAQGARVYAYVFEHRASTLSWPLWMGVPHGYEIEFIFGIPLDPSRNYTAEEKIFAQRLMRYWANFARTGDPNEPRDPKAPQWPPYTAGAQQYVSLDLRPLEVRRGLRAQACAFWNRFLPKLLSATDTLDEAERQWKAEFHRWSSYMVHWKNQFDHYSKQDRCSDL
Protocol: The effect of carnosol on human recombinant acetylcholinesterase activity was quantified by measuring the formation of 5-thio-2-nitrobenzoic acid from acetyl-6-methylthiocholine (AMTCh), as adapted from Ellman et al. (1961, Biochem. Pharmacol., 7: 88-90). Briefly, carnosol (10 μM), reference compound or water (control) were added to a buffer containing 200 mM NaH2PO4/Na2HPO4 (pH 8.0), 5 mg/ml (NH4)2SO4, 0.4 mM DTNB and 5 mU enzyme. The enzymatic reaction was then initiated by the addition of the substrate AMTCh at 50 μM. The absorbance was measured immediately (t=0) at λ=405 nm using a microplate reader (MRX, Dynatech or Ultra, Tecan). This measurement was used to detect any compound interference with the spectrophotometric detection at this wavelength. After 30 min incubation at 37° C. (t=30), a second measurement of the absorbance was made at λ=405 nm. The enzyme activity was determined by subtracting the signal measured at t=0 from that measured at t=30. The results are expressed as percentage inhibition of the control enzyme activity. The standard inhibitory reference compound used was neostigmine, tested in each experiment at several concentrations to obtain an inhibition curve from which its IC50 value was calculated.

[5] = test system: synaptic markers pCREB, pMAPK, GluR1 in hippocampal slice cultures; experiment: Activation of synaptic (LTP) markers in hippocampal slice cultures; type: cell-based, Wistar rats; conditions: hippocampal slices, 15 min treatment; for GluR1, percentage of control values: cell surface AMPA receptor 1; for pCREB, relative activation / pMAPK, relative activation: vs buffer-treated sister cultures
Protocol: Seven-day-old Wistar rats were decapitated using a guillotine. In less than 1 minute the skull was opened, the cerebral hemispheres were separated and transferred and both hippocampi were dissected and transferred into ice-cold buffer containing 137 mM NaCl, 5 mM KCl, 0.85 mM Na2HPO4, 1.5 mM CaCl2, 0.66 mM KH2PO4, 0.28 mM MgSO4, 1 mM MgCl2, 2.7 mM NaHCO3, 1 mM Kynurenic acid and 0.6% D-glucose.
Transverse hippocampal slices (400 μm) were prepared using a vibrating blade microtome (VT1200S; Leica Microsystems (Schweiz) AG, Heerbrugg, Switzerland) in the same buffer. Hippocampal slices were individually placed on membrane inserts (Millicell Culture Plate Inserts, 0.4 μm) and cultivated at 35° C., 5% CO2, 95% humidity in a medium containing a 1:1 mixture of BME and MEM (both from Invitrogen) containing 25% heat-inactivated horse serum, 1× GlutaMAX, 1× Penicillin/Streptomycin, 0.6% glucose and 1 mM Kynurenic acid (Stoppini, Buchs and Muller (1991), J. Neurosci. Methods, 37(2), 173-82).
After 48 h in culture, synaptic NMDA receptors were activated by addition of carnosol or rosmanol for 15 min in 140 mM NaCl, 5 mM KCl, 1.3 mM CaCl2, 25 mM HEPES (pH 7.3), 33 mM D-glucose and 0.02 mM bicuculline methiodide. […] An additional positive control comprised the addition of 200 μM glycine to sister cultures. After the treatments, sections were washed and fixed for immunohistochemistry. Markers of enhanced synaptic activity, normally associated with long-term potentiation, representing an ex vivo model of learning and memory were quantitated (see Table 6, below).
Treatment of hippocampal cultures with carnosol and rosmanol induced one or more biochemical markers typical for LTP (pCREB: activated form of the cAMP response element binding protein; pMAPK: activated form of the mitogen-activated protein kinase; GluR1: cell surface presence of AMPA receptor 1).

Compound	Number of punished crossings, mean (mouse [1]; 200 mg/kg p.o. −24 h)	Number of punished crossings, mean (mouse [1]; 400 mg/kg p.o. −24 h)	Number of punished crossings, mean (mouse [1]; 600 mg/kg p.o. −24 h)	Number of marbles buried (% change from control) (mouse [2]; 3 mg/kg i.p.) [%]	Number of marbles buried (% change from control) (mouse [2]; 10 mg/kg i.p.) [%]	Number of marbles buried (% change from control) (mouse [2]; 30 mg/kg i.p.) [%]	IC50 [3] [µM]	inhibition at 10 µM [4] [%]	GluR1, percentage of control values [5] [%]	pCREB, relative activation [5]	pMAPK, relative activation [5]	Number of marbles buried (% change from control) (mouse [2]; 100 mg/kg i.p.) [%]
CC(C)c1cc2c(c(O)c1O)[C@@]13CCCC(C)(C)[C@@H]1C[C@@H]2OC3=O [Carnosol, carnosol]	3.5	3.7	3.1	−12	−10	−41	26.6 ± 6.9	53	608	±	++	
CC(C)c1cc2c(c(O)c1O)[C@@]13CCCC(C)(C)[C@@H]1[C@H](OC3=O)[C@H]2O [Rosmanol, rosmanol]					−21	−12	23.2 ± 9.7		320	±	+	−55
